#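 Method: 48-hour compound exposure of cells in 96-well plates, five concentrations, linear interpolation of endpoints. Definition used: TGI = concentration required for complete inhibition of growth.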
# Columns and labels:
# Assay in all cases: NCI tumour cell line growth inhibition, 48 h
# SF-295 CNS = system: SF-295 CNS
# A498 renal = system: A498 renal
# MALME-3M melanoma = system: MALME-3M melanoma
# HOP-92 NSCLC = system: HOP-92 NSCLC
# SF-268 CNS = system: SF-268 CNS
# NCI-H23 lung = system: NCI-H23 lung
# MOLT-4 leukemia = system: MOLT-4 leukemia
# SK-MEL-2 melanoma = system: SK-MEL-2 melanoma
# 786-0 renal = system: 786-0 renal
# RPMI-8226 leukemia = system: RPMI-8226 leukemia
# MDA-N = system: MDA-N
# COLO 205 colon = system: COLO 205 colon
# NCI-H460 lung = system: NCI-H460 lung
# SW-620 colon = system: SW-620 colon
# NCI-H522 lung = system: NCI-H522 lung
# MDA-MB-231 breast = system: MDA-MB-231 breast
# M14 melanoma = system: M14 melanoma
# HOP-62 NSCLC = system: HOP-62 NSCLC
# LOX IMVI melanoma = system: LOX IMVI melanoma
# UACC-257 melanoma = system: UACC-257 melanoma
# NCI/ADR-RES ovarian = system: NCI/ADR-RES ovarian
# HCT-116 colon = system: HCT-116 colon
# A549 NSCLC = system: A549 NSCLC
# U251 CNS = system: U251 CNS
# RXF 393 renal = system: RXF 393 renal
# SNB-75 CNS = system: SNB-75 CNS
# MCF7 breast = system: MCF7 breast
# PC-3 prostate = system: PC-3 prostate
# OVCAR-3 ovarian = system: OVCAR-3 ovarian
# HCT-15 colon = system: HCT-15 colon
# CCRF-CEM leukemia = system: CCRF-CEM leukemia
# OVCAR-4 ovarian = system: OVCAR-4 ovarian
# DU-145 prostate = system: DU-145 prostate
# T-47D breast = system: T-47D breast
# SR leukemia = system: SR leukemia
# OVCAR-5 ovarian = system: OVCAR-5 ovarian
# ACHN renal = system: ACHN renal
# BT-549 breast = system: BT-549 breast
# CAKI-1 renal = system: CAKI-1 renal
# SK-OV-3 ovarian = system: SK-OV-3 ovarian
# EKVX NSCLC = system: EKVX NSCLC
# HCC-2998 colon = system: HCC-2998 colon
# SF-539 CNS = system: SF-539 CNS
# NCI-H226 lung = system: NCI-H226 lung
# K-562 leukemia = system: K-562 leukemia
# IGROV1 ovarian = system: IGROV1 ovarian
# TK-10 renal = system: TK-10 renal
# HL-60(TB) leukemia = system: HL-60(TB) leukemia
# UACC-62 melanoma = system: UACC-62 melanoma
# HS 578T breast = system: HS 578T breast
# SNB-19 CNS = system: SNB-19 CNS
# HT29 colon = system: HT29 colon
# KM12 colon = system: KM12 colon
# OVCAR-8 ovarian = system: OVCAR-8 ovarian
# SK-MEL-5 melanoma = system: SK-MEL-5 melanoma
# UO-31 renal = system: UO-31 renal
# MDA-MB-435 = system: MDA-MB-435
# SK-MEL-28 melanoma = system: SK-MEL-28 melanoma
# DMS 273 small cell lung = system: DMS 273 small cell lung
# M19-MEL melanoma = system: M19-MEL melanoma
# SNB-78 CNS = system: SNB-78 CNS
# DMS 114 small cell lung = system: DMS 114 small cell lung
# KM20L2 colon = system: KM20L2 colon
# DLD-1 colon = system: DLD-1 colon
# LXFL 529 NSCLC = system: LXFL 529 NSCLC
# SN12C renal = system: SN12C renal
# XF 498 CNS = system: XF 498 CNS
compound,measurement,setting,value
N#Cc1c(-c2ccc(Cl)cc2)cc(-c2ccc(Nc3ccnc4cc(Cl)ccc34)cc2)[nH]c1=O,TGI,SF-295 CNS,> 62.1 µM
same,TGI,A498 renal,> 88.9 µM
same,TGI,MALME-3M melanoma,> 100 µM
same,TGI,HOP-92 NSCLC,61.2 µM
same,TGI,SF-268 CNS,> 100 µM
same,TGI,NCI-H23 lung,> 75.9 µM
same,TGI,MOLT-4 leukemia,> 100 µM
same,TGI,SK-MEL-2 melanoma,> 100 µM
same,TGI,786-0 renal,> 100 µM
same,TGI,RPMI-8226 leukemia,> 100 µM
same,TGI,MDA-N,> 100 µM
same,TGI,COLO 205 colon,> 100 µM
same,TGI,NCI-H460 lung,> 100 µM
same,TGI,SW-620 colon,> 100 µM
same,TGI,NCI-H522 lung,> 100 µM
same,TGI,MDA-MB-231 breast,> 67.4 µM
same,TGI,M14 melanoma,> 100 µM
same,TGI,HOP-62 NSCLC,> 62.8 µM
same,TGI,LOX IMVI melanoma,> 100 µM
same,TGI,UACC-257 melanoma,> 100 µM
same,TGI,NCI/ADR-RES ovarian,> 100 µM
same,TGI,HCT-116 colon,> 100 µM
same,TGI,A549 NSCLC,> 100 µM
same,TGI,U251 CNS,> 61 µM
same,TGI,RXF 393 renal,> 68 µM
same,TGI,SNB-75 CNS,> 100 µM
same,TGI,MCF7 breast,> 100 µM
same,TGI,PC-3 prostate,> 100 µM
same,TGI,OVCAR-3 ovarian,> 100 µM
same,TGI,HCT-15 colon,> 100 µM
same,TGI,CCRF-CEM leukemia,31.6 µM
same,TGI,OVCAR-4 ovarian,> 100 µM
same,TGI,DU-145 prostate,> 100 µM
same,TGI,T-47D breast,> 100 µM
same,TGI,SR leukemia,> 100 µM
same,TGI,OVCAR-5 ovarian,> 100 µM
same,TGI,ACHN renal,> 85.4 µM
same,TGI,BT-549 breast,54.2 µM
same,TGI,CAKI-1 renal,> 100 µM
same,TGI,SK-OV-3 ovarian,> 79 µM
same,TGI,EKVX NSCLC,> 100 µM
same,TGI,HCC-2998 colon,> 100 µM
same,TGI,SF-539 CNS,> 100 µM
same,TGI,NCI-H226 lung,> 100 µM
same,TGI,K-562 leukemia,> 100 µM
same,TGI,IGROV1 ovarian,> 100 µM
same,TGI,TK-10 renal,> 55.3 µM
same,TGI,HL-60(TB) leukemia,> 100 µM
same,TGI,UACC-62 melanoma,> 100 µM
same,TGI,HS 578T breast,62.4 µM
same,TGI,SNB-19 CNS,> 96.7 µM
same,TGI,HT29 colon,> 100 µM
same,TGI,KM12 colon,> 100 µM
same,TGI,OVCAR-8 ovarian,> 100 µM
same,TGI,SK-MEL-5 melanoma,> 100 µM
same,TGI,UO-31 renal,> 100 µM
same,TGI,MDA-MB-435,> 100 µM
same,TGI,SK-MEL-28 melanoma,> 100 µM
ClC(Cl)=C(Cl)C1(Cl)CC1COCc1ccccc1 (configuration not stated),TGI,SF-295 CNS,96.2 µM
same,TGI,A498 renal,> 100 µM
same,TGI,MALME-3M melanoma,43.7 µM
same,TGI,HOP-92 NSCLC,42.8 µM
same,TGI,SF-268 CNS,> 100 µM
same,TGI,NCI-H23 lung,> 100 µM
same,TGI,DMS 273 small cell lung,> 100 µM
same,TGI,MOLT-4 leukemia,55.1 µM
same,TGI,SK-MEL-2 melanoma,36.7 µM
same,TGI,786-0 renal,> 100 µM
same,TGI,RPMI-8226 leukemia,44.2 µM
same,TGI,M19-MEL melanoma,73.6 µM
same,TGI,COLO 205 colon,61.1 µM
same,TGI,NCI-H460 lung,> 100 µM
same,TGI,SW-620 colon,> 100 µM
same,TGI,NCI-H522 lung,44.2 µM
same,TGI,SNB-78 CNS,60.6 µM
same,TGI,M14 melanoma,> 100 µM
same,TGI,HOP-62 NSCLC,79.3 µM
same,TGI,LOX IMVI melanoma,54.8 µM
same,TGI,UACC-257 melanoma,97.2 µM
same,TGI,A549 NSCLC,> 100 µM
same,TGI,RXF 393 renal,59.6 µM
same,TGI,SNB-75 CNS,> 100 µM
same,TGI,DMS 114 small cell lung,59.6 µM
same,TGI,OVCAR-3 ovarian,68.2 µM
same,TGI,HCT-15 colon,> 100 µM
same,TGI,CCRF-CEM leukemia,49 µM
same,TGI,OVCAR-4 ovarian,> 100 µM
same,TGI,KM20L2 colon,> 100 µM
same,TGI,DLD-1 colon,> 100 µM
same,TGI,OVCAR-5 ovarian,> 100 µM
same,TGI,ACHN renal,> 100 µM
same,TGI,LXFL 529 NSCLC,> 100 µM
same,TGI,CAKI-1 renal,> 100 µM
same,TGI,SK-OV-3 ovarian,> 100 µM
same,TGI,EKVX NSCLC,> 100 µM
same,TGI,HCC-2998 colon,81.2 µM
same,TGI,SF-539 CNS,> 100 µM
same,TGI,SN12C renal,> 100 µM
same,TGI,NCI-H226 lung,95.6 µM
same,TGI,K-562 leukemia,> 100 µM
same,TGI,IGROV1 ovarian,> 100 µM
same,TGI,TK-10 renal,> 100 µM
same,TGI,HL-60(TB) leukemia,41.9 µM
same,TGI,UACC-62 melanoma,69.5 µM
same,TGI,SNB-19 CNS,> 100 µM
same,TGI,HT29 colon,86.3 µM
same,TGI,KM12 colon,> 100 µM
same,TGI,OVCAR-8 ovarian,> 100 µM
same,TGI,SK-MEL-5 melanoma,31.8 µM
same,TGI,UO-31 renal,74.1 µM
same,TGI,XF 498 CNS,73.6 µM
same,TGI,SK-MEL-28 melanoma,> 100 µM
C#CC1(O)CCC2C3CCc4cc(Oc5nc(F)nc(-c6c7ccccc7c7n6CCS7)n5)ccc4C3CC[C@@]21C (some centres not stated),TGI,SF-295 CNS,30.1 µM
same,TGI,MALME-3M melanoma,> 100 µM
same,TGI,HOP-92 NSCLC,47 µM
same,TGI,SF-268 CNS,> 100 µM
same,TGI,NCI-H23 lung,42.7 µM
same,TGI,DMS 273 small cell lung,87.8 µM
same,TGI,MOLT-4 leukemia,> 100 µM
same,TGI,SK-MEL-2 melanoma,23.9 µM
same,TGI,786-0 renal,> 100 µM
same,TGI,RPMI-8226 leukemia,57.5 µM
same,TGI,M19-MEL melanoma,> 100 µM
same,TGI,COLO 205 colon,70 µM
same,TGI,NCI-H460 lung,> 100 µM
same,TGI,SW-620 colon,> 100 µM
same,TGI,NCI-H522 lung,20.9 µM
same,TGI,M14 melanoma,40.5 µM
same,TGI,HOP-62 NSCLC,36.1 µM
same,TGI,UACC-257 melanoma,> 100 µM
same,TGI,HCT-116 colon,25.8 µM
same,TGI,A549 NSCLC,> 100 µM
same,TGI,U251 CNS,40.7 µM
same,TGI,SNB-75 CNS,49.1 µM
same,TGI,DMS 114 small cell lung,44.7 µM
same,TGI,OVCAR-3 ovarian,32.2 µM
same,TGI,HCT-15 colon,54.3 µM
same,TGI,CCRF-CEM leukemia,80.1 µM
same,TGI,OVCAR-4 ovarian,68.6 µM
same,TGI,KM20L2 colon,> 100 µM
same,TGI,DLD-1 colon,> 100 µM
same,TGI,SR leukemia,92.3 µM
same,TGI,OVCAR-5 ovarian,> 100 µM
same,TGI,ACHN renal,> 100 µM
same,TGI,LXFL 529 NSCLC,57.3 µM
same,TGI,CAKI-1 renal,73 µM
same,TGI,HCC-2998 colon,41.7 µM
same,TGI,SF-539 CNS,33 µM
same,TGI,NCI-H226 lung,92.5 µM
same,TGI,K-562 leukemia,> 100 µM
same,TGI,IGROV1 ovarian,> 100 µM
same,TGI,TK-10 renal,71.3 µM
same,TGI,HL-60(TB) leukemia,54.5 µM
same,TGI,UACC-62 melanoma,86.2 µM
same,TGI,SNB-19 CNS,70.6 µM
same,TGI,HT29 colon,73.7 µM
same,TGI,KM12 colon,28.3 µM
same,TGI,OVCAR-8 ovarian,> 100 µM
same,TGI,SK-MEL-5 melanoma,45.5 µM
same,TGI,UO-31 renal,78.3 µM
same,TGI,XF 498 CNS,> 100 µM
same,TGI,SK-MEL-28 melanoma,57.9 µM
